≈ marks a conversion by molar mass, not a printed value. Counter-ions that a name gives are not always drawn.
Key:
[1] = system: Acetylcholinesterase (AChE); experiment: AChE inhibition, Ellman's method; type: biochemical; conditions: 20 µg/mL
[2] = system: butyrylcholinesterase (BChE); conditions: coumarins from Angelica officinalis L. fruits; ref Ferreira et al., 2006; cited from earlier work
[3] = target: hCA I (Homo sapiens, UniProt P00915); experiment: hCA I inhibition, esterase activity; type: biochemical
[4] = system: butyrylcholinesterase (BChE); experiment: BChE inhibition, Ellman's method; type: biochemical; conditions: for Percentile of inhibition ± S.E.M against BChE: 20 µg/mL
[5] = Anti-lipid peroxidation activity
[6] = target: hCA II (Homo sapiens, UniProt P00918); experiment: hCA II inhibition, esterase activity; type: biochemical
[7] = system: pPI3K and pAkt; conditions: cells Caco-2; ref Liu et al., 2016; cited from earlier work
[8] = system: Caco-2 cells; conditions: purified from A. dahurica; ref Liu et al., 2016; cited from earlier work

Chain of hCA I (P00915 whole entry): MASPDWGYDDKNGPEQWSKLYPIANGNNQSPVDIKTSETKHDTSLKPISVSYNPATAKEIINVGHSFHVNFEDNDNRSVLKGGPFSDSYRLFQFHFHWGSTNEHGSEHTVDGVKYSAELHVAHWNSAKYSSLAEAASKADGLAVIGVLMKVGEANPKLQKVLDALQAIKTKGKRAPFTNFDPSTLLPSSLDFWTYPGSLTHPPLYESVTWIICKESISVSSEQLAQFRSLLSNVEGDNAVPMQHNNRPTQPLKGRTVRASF

| Compound | inhibition towards butyrylcholinesterase (BChE) (in words) [2] | Percentile of inhibition ± S.E.M against BChE [4] | IC50 values ± SD, anti-lipid peroxidation (TBA test) [5] | other results |
| --- | --- | --- | --- | --- |
| COc1c2ccoc2cc2oc(=O)ccc12 [Bergapten] | strong inhibition | 31.00 ± 3.02% | 56.99 ± 3.87 µg/mL (≈ 264 µM) | Percentile of inhibition ± S.E.M against AChE [1]: 18.98 ± 2.98%; IC50 [3]: 7.29 µM; Ki [3]: 4.79 ± 0.57 µM; IC50 [6]: 8.25 µM; Ki [6]: 12.8 ± 1.92 µM |
| O=C(/C=C/c1ccc(O)c(O)c1)O[C@@H]1C[C@](O)(C(=O)O)C[C@@H](O)[C@H]1O [Chlorogenic acid, reference compound] | – | – | 12.98 ± 4.89 µg/mL (≈ 36.6 µM) | – |
| COc1cc2c(cc1OC)C(=O)C(CC1CCN(Cc3ccccc3)CC1)C2 (centres unmarked) [Donepezil, donepezil hydrochloride, reference compound] | – | 90.33 ± 4.16% | – | – |
| CC1(C)O[C@H]1COc1c2ccoc2cc2oc(=O)ccc12 [Oxypeucedanin] | – | 36.89 ± 1.23% | 91.27 ± 2.76 µg/mL (≈ 319 µM) | Percentile of inhibition ± S.E.M against AChE [1]: 19.36 ± 1.87%; IC50 [3]: 6.73 µM; Ki [3]: 5.33 ± 1.08 µM; IC50 [6]: 5.29 µM; Ki [6]: 8.85 ± 1.05 µM |
| CCCOC(=O)c1cc(O)c(O)c(O)c1 [Propyl gallate, reference compound] | – | – | 3.44 ± 2.05 µg/mL (≈ 16.2 µM) | – |
| C[C@@H]1O[C@@H](OC[C@H]2O[C@@H](Oc3c(-c4ccc(O)c(O)c4)oc4cc(O)cc(O)c4c3=O)[C@H](O)[C@@H](O)[C@@H]2O)[C@H](O)[C@H](O)[C@H]1O [Rutin, reference compound] | – | – | 9.65 ± 3.09 µg/mL (≈ 15.8 µM) | – |
| CC[C@H](/C=C/[C@@H](C)[C@H]1CC[C@H]2[C@@H]3CC=C4C[C@@H](O)CC[C@]4(C)[C@H]3CC[C@]12C)C(C)C [Stigmasterol] | – | 13.34 ± 2.99% | – | BChE inhibition activity (in words) [4]: did not show considerable inhibition towards BChE |
| CC(C)=CCOc1c2occc2cc2ccc(=O)oc12 [imperatorin] | strong inhibition | – | – | – |
| CC(C)=CCOc1c2ccoc2cc2oc(=O)ccc12 [isoimperatorin] | strong inhibition | – | – | – |
| COc1c2occc2cc2ccc(=O)oc12 [xanthotoxin] | strong inhibition | – | – | – |
| CC[C@H](CC[C@@H](C)[C@H]1CC[C@H]2[C@@H]3CC=C4C[C@@H](O)CC[C@]4(C)[C@H]3CC[C@]12C)C(C)C [β-Sitosterol] | – | 9.93 ± 1.78% | 492.30 ± 2.03 µg/mL (≈ 1190 µM) | BChE inhibition activity (in words) [4]: did not show considerable inhibition towards BChE |
| Oxypeucedanin hydrate monoacetate | – | – | – | expression of pPI3K and pAkt (in words) [7]: significant down-regulation; cancer cell migration (in words) [8]: inhibition of cancer cell migration |
